Experimental data published in ChEMBL document CHEMBL3232935, “Design, synthesis and evaluation of 1,2,3-triazole-adamantylacetamide hybrids as potent inhibitors of Mycobacterium tuberculosis” (Bioorg Med Chem Lett, 2014).
≈ marks a conversion by molar mass, not a printed value.

Assays:
[1] = Lipophilicity, log P of the compound; type: physicochemical; settings: octanol/water
[2] = test system: Mycobacterium tuberculosis; assay: microbe, parasite or virus in culture; type: functional; settings: H37Rv ATCC 27294, 672 h
Description: Antitubercular activity against Mycobacterium tuberculosis H37Rv ATCC 27294 after 28 days by agar dilution method

[3] = Cytotoxicity against HEK293T cells at 50 ug/ml after 72 hrs by MTT assay; type: cell-based, HEK-293T; settings: human, read-out: INH
[4] = Selectivity index, ratio of cytotoxicity against HEK293T cells to antitubercular activity against Mycobacterium tuberculosis H37Rv ATCC 27294; type: toxicity, cell-based, HEK-293T; settings: human, read-out: Selectivity Index

| Compound | logP [1] | MIC [2] [µg/mL] | cytotoxicity at 72 h, 50 ug/ml [3] [%] | selectivity ratio [4] |
| --- | --- | --- | --- | --- |
| COc1ccc2cc(-c3cn(CC(=O)NC45CC6CC(CC(C6)C4)C5)nn3)ccc2c1 | 3.63 | 50 (≈ 120 µM) | – | – |
| O=C(Cn1cc(CCCO)nn1)NC12CC3CC(CC(C3)C1)C2 | 0.61 | 6.25 (≈ 19.6 µM) | 20.7 | > 15 |
| COc1cccc(-c2cn(CC(=O)NC34CC5CC(CC(C5)C3)C4)nn2)c1 | 2.63 | 25 (≈ 68.2 µM) | – | – |
| NNC(=O)c1ccncc1 [ISONIAZID] | – | 0.1 (≈ 0.729 µM) | – | – |
| O=C(Cn1cc(C2(O)CCCC2)nn1)NC12CC3CC(CC(C3)C1)C2 | 1.51 | 50 (≈ 145 µM) | – | – |
| CCCCCc1ccc(-c2cn(CC(=O)NC34CC5CC(CC(C5)C3)C4)nn2)cc1 | 4.91 | 6.25 (≈ 15.4 µM) | 18.7 | > 15 |
| CCCCCCc1cn(CC(=O)NC23CC4CC(CC(C4)C2)C3)nn1 | 3.52 | 50 (≈ 145 µM) | – | – |
| O=C(Cn1cc(C2(O)CCCCC2)nn1)NC12CC3CC(CC(C3)C1)C2 | 1.93 | 6.25 (≈ 17.4 µM) | 17.5 | > 15 |
| O=C(Cn1cc(-c2ccc(F)cc2F)nn1)NC12CC3CC(CC(C3)C1)C2 | 3.07 | 50 (≈ 134 µM) | – | – |
| CC(C)(C)c1ccc(-c2cn(CC(=O)NC34CC5CC(CC(C5)C3)C4)nn2)cc1 | 4.46 | 50 (≈ 127 µM) | – | – |
| NC(=O)c1cnccn1 [PYRAZINAMIDE] | – | 50 (≈ 406 µM) | – | – |
| O=C(Cn1cc(-c2ccsc2)nn1)NC12CC3CC(CC(C3)C1)C2 | 2.74 | 50 (≈ 146 µM) | – | – |
| O=C(Cn1cc(-c2ccccc2)nn1)NC12CC3CC(CC(C3)C1)C2 | 2.75 | 50 (≈ 149 µM) | – | – |
| CC(=O)c1ccc(C)cc1OCc1cn(CC(=O)NC23CC4CC(CC(C4)C2)C3)nn1 | 2.55 | 50 (≈ 118 µM) | – | – |
| CCCCCc1cn(CC(=O)NC23CC4CC(CC(C4)C2)C3)nn1 | 3.1 | 50 (≈ 151 µM) | – | – |
| O=C(Cn1cc(-c2ccc([N+](=O)[O-])cc2)nn1)NC12CC3CC(CC(C3)C1)C2 | – | 50 (≈ 131 µM) | – | – |
| O=C(Cn1cc(-c2cc3ccccc3c3ccccc23)nn1)NC12CC3CC(CC(C3)C1)C2 | 4.75 | 3.12 (≈ 7.15 µM) | 20.1 | > 15 |
| O=C(Cn1cc(-c2ccc(F)c(F)c2)nn1)NC12CC3CC(CC(C3)C1)C2 | 3.07 | 50 (≈ 134 µM) | – | – |
| CCCCc1cn(CC(=O)NC23CC4CC(CC(C4)C2)C3)nn1 | 2.68 | 50 (≈ 158 µM) | – | – |
| COc1ccc(-c2cn(CC(=O)NC34CC5CC(CC(C5)C3)C4)nn2)c(C)c1 | 3.12 | 50 (≈ 131 µM) | – | – |
| O=C(Cn1cc(-c2ccc(C(F)(F)F)cc2)nn1)NC12CC3CC(CC(C3)C1)C2 | 3.68 | 50 (≈ 124 µM) | – | – |
| CC[C@@H](CO)NCCN[C@@H](CC)CO [ETHAMBUTOL] | – | 3.13 (≈ 15.3 µM) | – | – |
| O=C(Cn1cc(-c2ccc(Cl)c(Cl)c2)nn1)NC12CC3CC(CC(C3)C1)C2 | 3.87 | 50 (≈ 123 µM) | – | – |
| O=C(Cn1cc(CCc2ccccc2)nn1)NC12CC3CC(CC(C3)C1)C2 | 3.03 | 50 (≈ 137 µM) | – | – |
